In patent publication US8568801B2, “Solid oral sensorial products including stain inhibitor” (Philip Morris USA Inc., priority 2010, dated 2013):

Legend:
[1] = Cow's teeth staining by extract of tea pouches, simulating 6 months of use; conditions: extract of pouches with 5.0 g tea and 50 mg sodium hexametaphosphate; 5 soaks of 7 minutes at about 100° F. with brushing; FIG. 9
Experimental: (§1) To determine the effectiveness of the phosphate containing stain inhibitor on oral sensorial products including tea, a test was performed to simulate 6 months of use of the oral sensorial products. About 187.5 mL artificial saliva and 75 pouches containing 5.0 g tea were placed in a bag in a water bath at 100° F. for 3 minutes. The artificial saliva was formed as part of a 1000 mL batch including 4.20 g sodium bicarbonate, 0.50 g sodium chloride and 0.20 g potassium carbonate. The bag was removed and rolled for about 2 minutes and then returned to the water bath for 10 minutes. This process was repeated four more times (five total). The pouches were then removed from the bag and 50 mL of the extract was placed in a 250 mL crystallization beaker. Cow's teeth were then immersed in the 50 mL of extract, the beaker was covered with polypropylene wrap, and the teeth were soaked for 7 minutes at about 100° F. The teeth were removed from the beaker and rinsed with reverse osmosis water for about 5 seconds. The front enamel of each tooth was brushed with 1 g of Crest® Cavity Protection toothpaste for 30 seconds, rinsed with reverse osmosis water and covered to prevent exposure to light. This regime was repeated 4 additional times (5 total). A second extract was made using pouches including 5.0 g tea and 50 mg sodium hexametaphosphate. […]

[2] = Cow's teeth staining by extract of Burley tobacco pouches; conditions: as printed, the tobacco-only tooth is the darker one; inhibitor extract from 50 mg sodium hexametaphosphate and 5.0 g Burley tobacco; 5 soaks; FIG. 10
Experimental: as §1, with “inhibitor on solid oral sensorial” for “inhibitor on oral sensorial”, “products including tobacco, 187.5 mL” for “products including tea, a test was performed to simulate 6 months of use of the oral sensorial products. About 187.5 mL”, “5.0 g Burley tobacco were placed” for “5.0 g tea were placed”, “of the Burley tobacco extract was” for “of the extract was”, “5.0 g Burley tobacco and 50” for “5.0 g tea and 50”

[3] = Hydroxyapatite powder washed in phosphate, then soaked in Burley tobacco extract; conditions: compared with unwashed HAP powder and with HAP powder first washed in dibasic sodium phosphate; FIG. 11
[4] = Hydroxyapatite powder soaked in tea extract; conditions: 5.0 g tea and 50 mg sodium hexametaphosphate in 100 mL water, room temperature, about 1 hour; FIG. 12
Experimental: A second extract was formed by soaking 5.0 g of tea in 100 mL water at room temperature for about 1 hour. Each extract was then filtered through #2 Watman filter paper. Approximately 152 mg of hydroxyapatite powder was placed in the bottom of each of two centrifuge vials. 14 mL of the first extract was placed in one vial and 14 mL of the second extract was placed in the second vial.

[5] = Hydroxyapatite powder soaked in Burley tobacco extract with various amounts of sodium hexametaphosphate; conditions: FIG. 13
Experimental: To determine the effect of various amount of sodium hexametaphosphate, 5.0 grams of Burley tobacco was soaked in 100 mL water at room temperature for 1 hour to form a first extract. A second extract was formed by soaking 5.0 grams of Burley tobacco and […] sodium hexametaphosphate in 100 mL water at room temperature for 1 hour. A third extract was formed by soaking 5.0 grams of Burley tobacco and 0.252 g sodium hexametaphosphate in 100 mL water at room temperature for 1 hour. A fourth extract was formed by soaking 5.0 grams of Burley tobacco and 0.047 g sodium hexametaphosphate in 100 mL water at room temperature for 1 hour. Each extract was then filtered through #2 Watman filter paper. Approximately […] of hydroxyapatite powder was placed in the bottom of each of four centrifuge vials. 14 mL of the first extract was placed in the first vial, 14 mL of the second extract was placed in the second vial, 14 mL of the third extract was placed in the third vial and 14 mL of the fourth extract was placed in the fourth vial. The powder in each vial was allowed to soak for about 1 hour with agitation and then the powder was decanted, washed in distilled water at least three times and decanted each time.

O=P1([O-])OP(=O)([O-])OP(=O)([O-])OP(=O)([O-])OP(=O)([O-])OP(=O)([O-])O1.[Na+].[Na+].[Na+].[Na+].[Na+].[Na+] [sodium hexametaphosphate]
color of cow's teeth exposed to sodium hexametaphosphate and tea compared with teeth exposed to tea alone [1]: noticeably lighter in color | color of cow's tooth soaked in Burley tobacco extract alone compared with tooth soaked in extract with sodium hexametaphosphate [2]: visibly darker | color of HAP powder first washed in the phosphate and then soaked in Burley tobacco extract [3]: visibly whiter | color of HAP powder soaked in extract of tea and sodium hexametaphosphate compared with tea alone [4]: visibly whiter | color of powders soaked in extracts with larger amounts of sodium hexametaphosphate compared with smaller amounts ([5]; 25.080 g, 0.252 g and 0.047 g sodium hexametaphosphate with 5.0 g Burley tobacco in 100 mL water): lighter in color | color of powder soaked in Burley tobacco extract alone compared with powders soaked in extracts including sodium hexametaphosphate ([5]; as printed, the tobacco-only powder is the darker one, 5.0 g Burley tobacco with 25.080 g, 0.252 g or 0.047 g sodium hexametaphosphate in 100 mL water): visibly darker
